Test results from patent publication US8691990B2, “6-heterocyclic imidazo[1,2-α]pyridine-2-carboxamide derivatives, preparation and therapeutic use thereof” (Sanofi, priority 2008, dated 2014).
Where a name gives a salt, the structure may show the parent alone.

Each molecule was assayed against T1, murine Nurr 1 receptor (Mus musculus, UniProt Q06219) (assay: In vitro activity on N2A cells (NBRE-luciferase reporter gene)). Conditions: N2A cell line endogenously expressing Nurr 1, stably transfected with 8NBRE-luciferase; products incubated 24 hours.
T1 construct: a cell line (N2A) endogenously expressing the murine Nurr 1 receptor; host or cells: Neuro-2A (N2A) mouse neuroblastoma cells stably transfected with 8NBRE-luciferase
T1 sequence (Q06219 whole entry): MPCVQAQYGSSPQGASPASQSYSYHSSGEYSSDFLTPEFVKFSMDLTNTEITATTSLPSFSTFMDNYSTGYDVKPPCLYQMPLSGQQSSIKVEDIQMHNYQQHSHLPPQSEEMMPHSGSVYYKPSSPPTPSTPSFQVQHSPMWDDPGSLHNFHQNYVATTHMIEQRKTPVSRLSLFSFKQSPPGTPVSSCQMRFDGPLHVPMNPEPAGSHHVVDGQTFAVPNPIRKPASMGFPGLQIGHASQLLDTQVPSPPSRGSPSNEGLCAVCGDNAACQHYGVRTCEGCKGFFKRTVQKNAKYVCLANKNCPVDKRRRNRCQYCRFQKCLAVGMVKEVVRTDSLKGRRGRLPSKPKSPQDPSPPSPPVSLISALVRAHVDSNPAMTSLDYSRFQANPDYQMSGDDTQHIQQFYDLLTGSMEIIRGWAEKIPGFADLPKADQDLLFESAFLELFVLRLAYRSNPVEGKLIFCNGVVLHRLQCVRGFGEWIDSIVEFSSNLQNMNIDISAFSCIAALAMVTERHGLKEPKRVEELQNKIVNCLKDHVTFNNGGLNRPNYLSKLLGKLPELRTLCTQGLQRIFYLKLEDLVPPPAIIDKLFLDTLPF
Type: cell-based
Procedure: Evaluation of the In Vitro Activity on N2A Cells
The activity of the compounds according to the invention was evaluated on a cell line (N2A) endogenously expressing the murine Nurr 1 receptor and stably transfected with the NOT binding response element (NBRE) coupled to the luciferase reporter gene. The EC50 values are between 0.01 and 1000 nM. The tests were performed according to the procedure described hereinbelow.
The cell line Neuro-2A is obtained from a standard commercial source (ATCC). The clone Neuro-2A was obtained from a spontaneous tumour originating from a strain of albino mice A by R. J Klebe et al. This line Neuro-2A is then stably transfected with 8NBRE-luciferase. The N2A-8NBRE cells are cultured to the point of confluence in 75 cm^2 culture flasks containing DMEM supplemented with 10% foetal calf serum, 4.5 g/L of glucose and 0.4 mg/ml of geneticin. After culturing for one week, the cells are recovered with 0.25% trypsin for 30 seconds and then resuspended in DMEM without phenol red, containing 4.5 g/L of glucose and 10% Hyclone defatted serum, and placed in white, transparent-based 96-well plates. The cells are deposited at a rate of 60 000 per well in 75 μL for 24 hours before adding the products. The products are applied in 25 μL and incubated for a further 24 hours. On the day of measurement, an equivalent volume (100 μL) of Steadylite is added to each well, and the wells are then left for 30 minutes to obtain complete lysis of the cells and maximum production of the signal. The plates are then measured in a microplate luminescence counter, after having been sealed with an adhesive film. The products are prepared in the form of a 10^−2 M stock solution, and then diluted in 100% of DMSO. Each concentration of product is prediluted in culture medium before incubation with the cells thus containing 0.625% final of DMSO.

EC50 | SMILES
0.9 nM | O=C(Nc1ccccc1)c1cn2cc(-c3ccccn3)ccc2n1 [Compound 3, N-Phenyl-6-(pyrid-2-yl)imidazo[1,2-a]pyridine-2-carboxamide]
26.8 nM | O=C(Nc1ccccc1)c1cn2cc(C3=NCCN3)ccc2n1 [Compound 17, 6-(4,5-Dihydro-1H-imidazol-2-yl)-N-phenylimidazo[1,2-a]pyridine-2-carboxamide hydrochlorides (1:1) and (1:2)]
0.9 nM | O=C(Nc1cc(F)cc(F)c1)c1cn2cc(-c3ccoc3)ccc2n1 [Compound 24, N-(3,5-Difluorophenyl)-6-(furan-3-yl)imidazo[1,2-a]pyridine-2-carboxamide]
1.1 nM | O=C(Nc1ccccc1)c1cn2cc(-c3cn[nH]c3)ccc2n1 [Compound 29, N-Phenyl-6-(1H-pyrazol-4-yl)imidazo[1,2-a]pyridine-2-carboxamide]
1.2 nM | O=C(Nc1cccc(F)c1F)c1cn2cc(-c3ccccn3)ccc2n1 [Compound 45, N-(2,3-Difluorophenyl)-6-(pyrid-2-yl)imidazo[1,2-a]pyridine-2-carboxamide]
0.4 nM | O=C(Nc1cccc(F)c1)c1cn2cc(-c3nc[nH]n3)ccc2n1 [Compound 53, N-(3-Fluorophenyl)-6-(1H-1,2,4-triazol-3-yl)imidazo[1,2-a]pyridine-2-carboxamide]
